Patent publication US6358883B1, “Pesticidal and parasiticidal use of 1-aryl-1-(substituted thio, sulfinyl and sulfonyl)-2-nitroethane compounds” (American Cyanamid Company, priority 1998, dated 2002)

Assays:
Type in all cases: in vivo
[1] = system: Diabrotica virgifera virgifera Leconte, 2nd instar western corn rootworm (WCR); assay: Western corn rootworm (WCR) soil test; set-up: key: 0 = no effect; 1 = 10-25% kill; 2 = 26-35% kill; 3 = 36-45% kill; 4 = 46-55% kill; 5 = 56-65% kill; 6 = 66-75% kill; 7 = 76-85% kill; 8 = 86-99% kill; 9 = 100% kill
Method in brief: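 Ten 2nd-instar rootworm larvae are placed in jars of moist soil with millet seed and talc treated with 1.25 mg active ingredient (roughly 50 kg/ha) from a 35% acetone-in-water solution. After 5 days mortality is scored, counting missing larvae as dead.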

[2] = system: Spodoptera eridania, 2nd instar larvae, southern armyworm (SAW); assay: Southern armyworm (SAW) leaf dip test; set-up: key: 0 = no effect; 1 = 10-25% kill; 2 = 26-35% kill; 3 = 36-45% kill; 4 = 46-55% kill; 5 = 56-65% kill; 6 = 66-75% kill; 7 = 76-85% kill; 8 = 86-99% kill; 9 = 100% kill
Method in brief: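 Ten 2nd instar caterpillars feed on a Sieva lima bean leaf that was dipped 3 seconds in test solution (stock 10,000 ppm in 35% acetone/water, water-diluted). Five days later, larvae are assessed for death, feeding reduction or abnormal molting.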

[3] = system: Aphis gossypii, cotton aphid (CA); assay: Cotton aphid (CA) cotyledon dip test; set-up: key: 0 = no effect; 1 = 10-25% kill; 2 = 26-35% kill; 3 = 36-45% kill; 4 = 46-55% kill; 5 = 56-65% kill; 6 = 66-75% kill; 7 = 76-85% kill; 8 = 86-99% kill; 9 = 100% kill; conditions: mortality after 5 days
Method in brief: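 Mortality was scored 5 days after dipping aphid-infested cotyledons, colonised overnight from a transfer leaf, into water dilutions of a 35% acetone/water compound solution.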

[4] = system: Tetranychus urticae (OP-resistant strain), 2-spotted spider mite (TSM); assay: 2-spotted spider mite (TSM) plant dip test; set-up: key: 0 = no effect; 1 = 10-25% kill; 2 = 26-35% kill; 3 = 36-45% kill; 4 = 46-55% kill; 5 = 56-65% kill; 6 = 66-75% kill; 7 = 76-85% kill; 8 = 86-99% kill; 9 = 100% kill; conditions: mortality after 2 days
Method in brief: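 Mortality counted 2 days after a 3 s agitated dip of infested Sieva lima bean plants. Compound came from a 10,000 ppm stock in 35% aqueous acetone, with further dilution in water. Each primary leaf carried about 100 OP-resistant mites, allowed to settle ~2 h before dipping.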

[5] = system: Spodoptera eridania, eggs-southern armyworm (SAW-Eggs); assay: Southern armyworm eggs (SAW-Eggs) treated diet test; set-up: key: 0 = no effect; 1 = 10-25% kill; 2 = 26-35% kill; 3 = 36-45% kill; 4 = 46-55% kill; 5 = 56-65% kill; 6 = 66-75% kill; 7 = 76-85% kill; 8 = 86-99% kill; 9 = 100% kill; conditions: mortality after 7 days
Method in brief: (§1)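 Eggs of S. eridania or D. undecimpunctata howardi were set on artificial diet pretreated with test solution (10,000 ppm stock in 35% aqueous acetone, water dilutions) and dried. Wells were sealed with vented clear covers, and mortality was scored at day 7.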

[6] = system: Diabrotica undecimpunctata howardi, eggs-southern corn rootworm (SCR-Eggs); assay: Southern corn rootworm eggs (SCR-Eggs) treated diet test; set-up: key: 0 = no effect; 1 = 10-25% kill; 2 = 26-35% kill; 3 = 36-45% kill; 4 = 46-55% kill; 5 = 56-65% kill; 6 = 66-75% kill; 7 = 76-85% kill; 8 = 86-99% kill; 9 = 100% kill; conditions: mortality after 7 days
Method in brief: as §1

[7] = system: M. incognita (Root Knot Nematode) larvae; assay: Evaluation of test compounds against M. incognita larvae in microtiter plate wells (movement score); conditions: larvae scored for movement after 20-24 hours; further: key: A score of '9' indicates inactive worms with a straight, sticklike morphology; A score of '8' indicates inactive worms with a limp, curled or curved morphology; A score of '7' indicates dead/paralyzed worms after 72 hours
Method in brief: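 Scoring is by larval movement: dead or paralyzed worms count as positive, and a "7" means dead/paralyzed at 72 hours. Freshly hatched root-knot larvae (50-65 per well) in buffered S Medium were incubated with compounds under plate sealers for 20-24 h before the first read.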

[8] = system: C. elegans (Bristol strain); assay: Evaluation of test compounds against C. elegans (motility, 96-well plate); set-up: key: 9=complete kill in 4 hours; 8=complete kill in 24 hours; 7=markedly reduced motility in approximately 95% of worms in 24 hours; 0=normal motility, same as controls; conditions: motility at 4 and 24 hours
Method in brief: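 Activity is a semi-quantitative visual score of adult and larval movement, read at 4 h and 24 h post-immersion at 20 °C after gentle tapping. Worms were suspended in Na buffer in wells where compound, dissolved in 80% acetone, had been evaporated.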

In the case of CCCSC(C[N+](=O)[O-])c1ccc2ccccc2c1 (racemic) [Example 115], the “WCR (50 ppm) rating” value [1] is reported as 0, the “SAW (300 ppm) rating” value [2] is reported as 0 and the “CA (300 ppm) rating” value [3] is reported as 0. For the same compound, the “TSM (300 ppm) rating” value [4] was 0, the “SAW Eggs (300 ppm) rating” value [5] was 8 (8 = 86-99% kill) and the “SCR Eggs (1000 ppm) rating” value [6] was 0. The “M. incognita (150 ppm) score” value [7] was 0 and the “Rating Against C. elegans (150 ppm)” value [8] was 0.
For O=[N+]([O-])CC(SCc1ccccc1)c1ccc2ccccc2c1 (racemic) [Example 116], the “WCR (50 ppm) rating” value [1] was 0, the “SAW (300 ppm) rating” value [2] was 0 and the “CA (300 ppm) rating” value [3] was 0. For the same compound, the “TSM (300 ppm) rating” value [4] was 0, the “SAW Eggs (300 ppm) rating” value [5] was 0 and the “SCR Eggs (1000 ppm) rating” value [6] was 0. For the same compound, the “M. incognita (150 ppm) score” value [7] was 0 and the “Rating Against C. elegans (150 ppm)” value [8] was 0.
In the case of COC(=O)CSC(C[N+](=O)[O-])c1ccc(OC(F)(F)F)cc1 (racemic) [Example 117], the “WCR (50 ppm) rating” value [1] is reported as 0, the “SAW (300 ppm) rating” value [2] is reported as 0 and the “CA (300 ppm) rating” value [3] is reported as 0. For the same compound, the “TSM (300 ppm) rating” value [4] was 0, the “SAW Eggs (300 ppm) rating” value [5] was 0 and the “SCR Eggs (1000 ppm) rating” value [6] was 0. For the same compound, the “M. incognita (150 ppm) score” value [7] was 0 and the “Rating Against C. elegans (150 ppm)” value [8] was 8.
CCOC(=O)CSC(C[N+](=O)[O-])c1ccc(OC(F)(F)F)cc1 (racemic) [Example 118] was tested, and the “WCR (50 ppm) rating” value [1] was 0, the “SAW (300 ppm) rating” value [2] was 0 and the “CA (300 ppm) rating” value [3] was 0. For the same compound, the “TSM (300 ppm) rating” value [4] was 0, the “SAW Eggs (300 ppm) rating” value [5] was 9 (9 = 100% kill) and the “SCR Eggs (1000 ppm) rating” value [6] was 0. For the same compound, the “M. incognita (150 ppm) score” value [7] was 0 and the “Rating Against C. elegans (150 ppm)” value [8] was 8.
In the case of CCCOC(=O)CSC(C[N+](=O)[O-])c1ccc(OC(F)(F)F)cc1 (racemic) [Example 119], the “WCR (50 ppm) rating” value [1] is reported as 0, the “SAW (300 ppm) rating” value [2] is reported as 0 and the “CA (300 ppm) rating” value [3] is reported as 0. For the same compound, the “TSM (300 ppm) rating” value [4] was 3 (3 = 36-45% kill), the “SAW Eggs (300 ppm) rating” value [5] was 9 (9 = 100% kill) and the “SCR Eggs (1000 ppm) rating” value [6] was 0. For the same compound, the “M. incognita (150 ppm) score” value [7] was 9 and the “Rating Against C. elegans (150 ppm)” value [8] was 8.
CCCCOC(=O)CSC(C[N+](=O)[O-])c1ccc(OC(F)(F)F)cc1 (racemic) [Example 120] was tested, and the “WCR (50 ppm) rating” value [1] was 0, the “SAW (300 ppm) rating” value [2] was 0 and the “CA (300 ppm) rating” value [3] was 0. The “TSM (300 ppm) rating” value [4] was 0, the “SAW Eggs (300 ppm) rating” value [5] was 0 and the “SCR Eggs (1000 ppm) rating” value [6] was 0. For the same compound, the “M. incognita (150 ppm) score” value [7] was 9 and the “Rating Against C. elegans (150 ppm)” value [8] was 0.
O=C(CSC(C[N+](=O)[O-])c1ccc(OC(F)(F)F)cc1)OCc1ccccc1 (racemic) [Example 121] was tested, and the “WCR (50 ppm) rating” value [1] was 0, the “SAW (300 ppm) rating” value [2] was 0 and the “CA (300 ppm) rating” value [3] was 0. The “TSM (300 ppm) rating” value [4] was 0, the “SAW Eggs (300 ppm) rating” value [5] was 0 and the “SCR Eggs (1000 ppm) rating” value [6] was 0. The “M. incognita (150 ppm) score” value [7] was 8 and the “Rating Against C. elegans (150 ppm)” value [8] was 9.
CCCSC(C[N+](=O)[O-])c1ccc(OC(F)(F)F)cc1 (racemic) [Example 122] was tested, and the “WCR (50 ppm) rating” value [1] was 9 (9 = 100% kill), the “SAW (300 ppm) rating” value [2] was 2 (2 = 26-35% kill) and the “CA (300 ppm) rating” value [3] was 0. The “TSM (300 ppm) rating” value [4] was 7 (7 = 76-85% kill), the “SAW Eggs (300 ppm) rating” value [5] was 7 (7 = 76-85% kill) and the “SCR Eggs (1000 ppm) rating” value [6] was 0. The “M. incognita (150 ppm) score” value [7] was 0 and the “Rating Against C. elegans (150 ppm)” value [8] was 8.
COC(=O)CSC(C[N+](=O)[O-])c1ccccc1 (centres unmarked) [Example 4] was tested, and the “WCR (50 ppm) rating” value [1] was 4 (4 = 46-55% kill), the “SAW (300 ppm) rating” value [2] was 0 and the “CA (300 ppm) rating” value [3] was 5 (5 = 56-65% kill). For the same compound, the “TSM (300 ppm) rating” value [4] was 0, the “SAW Eggs (300 ppm) rating” value [5] was 0 and the “SCR Eggs (1000 ppm) rating” value [6] was 0. The “M. incognita (150 ppm) score” value [7] was 9 and the “Rating Against C. elegans (150 ppm)” value [8] was 9.
In the case of CCOC(=O)CSC(C[N+](=O)[O-])c1ccc(C)cc1 (centres unmarked) [Example 5], the “WCR (50 ppm) rating” value [1] is reported as 4 (4 = 46-55% kill), the “SAW (300 ppm) rating” value [2] is reported as 0 and the “CA (300 ppm) rating” value [3] is reported as 0. For the same compound, the “TSM (300 ppm) rating” value [4] was 0, the “SAW Eggs (300 ppm) rating” value [5] was 0 and the “SCR Eggs (1000 ppm) rating” value [6] was 0. The “M. incognita (150 ppm) score” value [7] was 9 and the “Rating Against C. elegans (150 ppm)” value [8] was 9.
